Read-outs that look alike come from different tables or passages of the source.
Tests used:
Mas = target: T1, Mas (Homo sapiens, UniProt P04201); assay: NO production in CHO cells stably transfected with Human Mas1; type: cell-based; conditions: for NO production with co-administration of A779: with A779, selective Mas antagonist, 1×10^−7 M
T1 construct: expressed in transfected cells
T1 sequence (P04201 1-325): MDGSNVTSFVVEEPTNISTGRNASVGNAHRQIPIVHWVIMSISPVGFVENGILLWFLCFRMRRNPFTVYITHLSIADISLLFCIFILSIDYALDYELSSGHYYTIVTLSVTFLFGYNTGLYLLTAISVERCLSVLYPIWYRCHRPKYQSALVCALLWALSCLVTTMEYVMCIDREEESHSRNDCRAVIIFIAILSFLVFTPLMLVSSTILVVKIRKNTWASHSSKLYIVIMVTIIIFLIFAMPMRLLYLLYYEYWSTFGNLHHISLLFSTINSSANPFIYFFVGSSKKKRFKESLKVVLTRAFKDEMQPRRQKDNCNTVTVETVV
Procedure: Transfected cells that express Mas were used to identify and evaluate provided compounds as Mas agonists, by promoting NO production as readouts. CHO cells stably transfected with pTEJ-8 vector containing recombinant Human Mas1 clone were grown to confluency. Cells were washed three times for 30/5/5 minutes with prewarmed (37° C.) Tyrodes Salts (supplemented with 1 g/L NaHCO3, and 1.9 g/L d-Glucose). Cells were incubated for a short time in 700 μL of supplemented Tyrodes salts containing 10 μM PTIO, 100 μM DAN, and 1 mM L-arginine. When using antagonist for competition assays, cells were exposed to the inhibitor at 1×10^−7 M for 15 minutes, before additional drugs are added.
Chemicals (10^−8 to 10^−6 M or the maximum concentration found not to cause cytotoxicity) to be screened were added to the cell medium and the plates were agitated for 1 minute before being placed into the incubator for 2 hours. After 2 hours, cellular supernatants were transferred to opaque 96 well plates, and the fluorescence intensity was recorded at an ex/em of 380/425.

AT2R = target: T2, AT2R (Homo sapiens, UniProt P50052); assay: AT2R displacement assay with radiolabeled Ang II; type: binding; conditions: displacement of radiolabeled Ang II or analogs; read-out: EC50 displacing Ang II in the AT2R displacement assay
T2 sequence (P50052 1-363): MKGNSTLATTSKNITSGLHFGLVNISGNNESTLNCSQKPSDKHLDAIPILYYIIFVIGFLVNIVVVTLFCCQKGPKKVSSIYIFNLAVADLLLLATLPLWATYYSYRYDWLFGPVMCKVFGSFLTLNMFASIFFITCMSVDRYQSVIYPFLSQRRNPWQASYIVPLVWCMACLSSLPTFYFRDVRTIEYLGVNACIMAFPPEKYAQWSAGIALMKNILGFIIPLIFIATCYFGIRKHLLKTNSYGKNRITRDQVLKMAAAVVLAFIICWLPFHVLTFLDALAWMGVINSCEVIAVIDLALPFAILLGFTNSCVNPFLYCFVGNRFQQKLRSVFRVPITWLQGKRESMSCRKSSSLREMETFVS
Procedure: Compound 7 was evaluated in vitro for its ability to compete with ratholabeled Ang II or analogs in a displacement assay for AT1R and AT2R receptors.

MDA MB 231 = assay: MTT cellular viability of MDA MB 231 breast cancer cell line; type: cell-based; conditions: for IC50: Homo sapiens, MDA-MB-231, MTT
Procedure: Compound 7 was evaluated for its ability to modulate cancer proliferation using MDA MB 231 breast cancer cell line. MDA MB 231 was treated with increasing concentration of Compound 7 ranged from 1×10^−12 to 1×10^−3 M, where the cells were incubated for 48 hours. After the incubation, cellular viability was evaluated using 3-(4,5-dimethylthiazol-2-yl)-2,5-diphenyltetrazolium bromide or MTT, where viable cells are able to reduce MTT to formazan and form an insoluble crystal. The solubilized crystal can be spectrometrically determine, where cellular viability is compared to cells treated with vehicle. The cellular viability of MDA MB 231 is summarized (FIG. 9). […] Rather at 1×10^−12 M ([…]) of Compound 7, the cellular proliferation was only 70% of vehicle treated.

db/db mice = assay: Organ weights (organmegaly) in db/db mice; type: in vivo; conditions: 14 days
Excerpt: Compound 7 (500 mcg/kg/day) or Ang(1-7) (500 mcg/kg/day) treated db/db mice were euphanized after 14 days of treatment. At necropsy, organs were collected for histology and weights. In FIG. 6A to 6C, hearts, left and right kidney normalized to tibia length were weight where db/db treated with Compound 7 were lower than db/db-controls (saline) and db/db treated with Ang(1-7).

[1] = Oral bioavailability in C57Bl/6 mice; type: in vivo; conditions: 500 μg/kg, oral gavage vs intravenous
Procedure: Compound 7 was evaluated for oral bioavailability at 500 μg/kg in C57Bl/6 mice. The drug was given by intravenous injection or by oral gavage and blood was collected at 0.5, 1, 2, 4, 8, 24 hours into heparinized tubes. The level of drug in the blood was measured by liquid chromatograph-mass spectrometry. Bioavailability was determined using the following ratio AUCIG/AUCIV (FIG. 10).

[2] = 500 mcg/kg/day, p<0.05 vs db/db controls

CCCCOC(=O)NS(=O)(=O)c1ccc(OC(F)(F)F)cc1-c1ccc(Cn2ccnc2)cn1 [Compound 7, butyl (2-(5-((1H-imidazol-1-yl)methyl)pyridin-2-yl)-4-(trifluoromethoxy)phenyl)sulfonylcarbamate]
ability to enhance NO production (fluorescence) (Mas; Mas-transfected CHO cells): concentration dependent increase in NO
EC50 (Mas; Mas-transfected CHO cells, 2 hours): 10 nM
NO production with co-administration of A779 (Mas): back to baseline
NO production with co-administration of A779 (Mas; listed as compound 7): back to baseline fluorescence
EC50 (AT2R): > 10000 nM
IC50 (MDA MB 231; 48 hours, read-out: IC50 (MDA MB 231 proliferation)): 58 nM
IC50 (MDA MB 231; 48 hours, read-out: IC50 (MDA MB 231 viability, Hill-slope analysis)): 58.2 nM
effect on breast cancer cell proliferation (MDA MB 231; MDA MB 231, 1×10^−12 to 1×10^−3 M): did not increase breast cancer cell proliferation
cellular proliferation, % of vehicle treated (MDA MB 231; MDA MB 231, at 1×10^−12 M, 48 hours): 70%
right kidney weight (db/db mice; 500 μg/kg/day): trended to be similar to heterozygous control
development of cardiomegaly (heart weight normalized to tibia length) (db/db mice; [2]): prevent the development of cardiomegaly
development of left kidney hypertrophy (weight normalized to tibia length) (db/db mice; [2]): prevent
oral bioavailability (AUCIG/AUCIV) [1]: 30%

From US10301298B2, “Methods, compounds, and compositions for the treatment of angiotensin-related diseases” (University of Southern California, priority 2013, dated 2019)
